Laboratory results taken from patent US10085986B2, “Pyrimidinone compounds and their use” (Takeda Pharmaceutical Company Limited, priority 2011, dated 2018).

Molecular target: Human DAAO Enzyme (Homo sapiens (Human), UniProt P14920)
Experiment: In vitro DAAO enzyme assay (Amplex Red detection of H2O2 from D-Serine)
Type: biochemical
Settings: inhibition of DAAO activity in the presence of 10 mM D-Serine; 60 minutes at 25° C.
Experimental: The functional activity of compounds inhibiting the DAAO enzyme was determined by utilizing the co-product of the catalysis of D-Serine, H2O2 which can be quantitatively measured using the Amplex Red (Invitrogen) detection. Amplex® Red reagent is a colorless substrate that reacts with hydrogen peroxide (H2O2) with a 1:1 stoichiometry in the presence of […] to produce highly fluorescent resorufin (excitationemission maxima=570/585 nm). The changes in fluorescence were monitored by a fluorescence plate reader, Envision (Perkin Elmer) and increases in DAAO activity were readily detected upon addition of D-Serine and suppression of this response observed with the application of test compounds.
The Km of D-Serine was measured for each enzyme batch to maintain consistency; this Km was used in subsequent assays.
On the day of the assay compounds were serially diluted in DMSO before being diluted 1:20 with assay buffer (20 mM Tris ph 7.4). A 5 μl portion of assay buffer was added to the wells of a 384 clear base black walled plate (Corning), 5 μl of diluted compound was then added via automated plate to plate transfer using the Bravo liquid handler (Agilent technologies) followed by 5 μl of human DAAO enzyme and then 5 μl D-Serine 50 mM was added to all but the negative control wells (final concentration of 10 mM). Finally 5 μl Amplex red reagent (Invitrogen) was added to all wells as per manufacturer's protocol. The plate was incubated for 60 minutes in the dark at 25° C. and the fluorescence in each well was measured in the Envision plate reader.
The IC50 values for compounds were determined from ten point half log scale dose-response studies and represent the concentration of compound required to […] 50% inhibition of DAAO activity in the presence of 10 mM D-Serine. Concentration response curves were generated using the average of duplicate wells for each data point and analyzed using nonlinear regression and four parameter curve fit.

Chain of Human DAAO Enzyme (P14920 whole entry): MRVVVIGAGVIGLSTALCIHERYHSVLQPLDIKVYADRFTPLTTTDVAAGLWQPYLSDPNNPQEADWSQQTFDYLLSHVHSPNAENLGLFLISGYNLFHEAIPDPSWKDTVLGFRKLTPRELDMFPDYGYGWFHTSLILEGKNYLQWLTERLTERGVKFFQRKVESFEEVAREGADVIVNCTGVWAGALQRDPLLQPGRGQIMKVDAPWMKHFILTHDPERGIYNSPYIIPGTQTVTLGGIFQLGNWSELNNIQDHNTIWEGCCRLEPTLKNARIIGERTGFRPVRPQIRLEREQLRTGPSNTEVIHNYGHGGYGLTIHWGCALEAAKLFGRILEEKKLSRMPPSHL

SMILES	IC50 [nM]
COc1cccc(CSc2ncc(O)c(=O)[nH]2)c1 [Example 9, 5-Hydroxy-2-[(3-methoxybenzyl)sulfanyl]pyrimidin-4(3H)-one]	160
Cc1nc(-c2cccc(CSc3ncc(O)c(=O)[nH]3)c2)no1 [Example 12, 5-Hydroxy-2-{[3-(5-methyl-1,2,4-oxadiazol-3-yl)benzyl]-sulfanyl}-pyrimidin-4(3H)-one]	500
O=c1[nH]c(SCc2cccc(C(F)(F)F)c2)ncc1O [Example 10, 5-Hydroxy-2-{[3-(trifluoromethyl)benzyl]sulfanyl}pyrimidin-4(3H)-one]	150
O=c1[nH]c(CCc2ccccc2)ncc1O [Example 33, 5-Hydroxy-2-(2-phenylethyl)pyrimidin-4(3H)-one]	1200
O=c1[nH]c(SCc2cccc3c2OCCO3)ncc1O [Example 16, 2-[(2,3-Dihydro-1,4-benzodioxin-5-ylmethyl)sulfanyl]-5-hydroxypyrimidin-4(3H)-one]	540
O=c1[nH]c(SCc2cccnc2)ncc1O [Example 20, 5-Hydroxy-2-(pyridin-3-ylmethylthio)pyrimidin-4(3H)-one]	470
O=c1[nH]c(SCc2ccc(Cl)cc2)ncc1O [Example 4, 2-[(4-Chlorobenzyl)sulfanyl]-5-hydroxypyrimidin-4(3H)-one]	220
O=c1[nH]c(SCc2ccccc2)ncc1O [Example 2, 2-(Benzylsulfanyl)-5-hydroxypyrimidin-4(3H)-one]	230
O=c1[nH]c(SCc2ccc3nccn3c2)ncc1O [Example 26, 5-Hydroxy-2-[(imidazo[1,2-a]pyridin-6-ylmethyl)sulfanyl]-pyrimidin-4(3H)-one]	740
O=c1[nH]c(SCc2ccccc2)nc(C(F)(F)F)c1O [Example 34, 2-(Benzylsulfanyl)-5-hydroxy-6-(trifluoromethyl)pyrimidin-4(3H)-one]	2700
O=c1[nH]c(COc2ccccc2)ncc1O [Example 31, 5-Hydroxy-2-(phenoxymethyl)pyrimidin-4(3H)-one]	3200
O=c1[nH]c(CSc2ccccc2)ncc1O [Example 30, 5-Hydroxy-2-[(phenylsulfanyl)methyl]pyrimidin-4(3H)-one]	2800

The remaining compounds from weak to strong by IC50, led by results:

IC50 [nM]	SMILES
1600	Cc1cc(CSc2ncc(O)c(=O)[nH]2)n(C)n1 [Example 21, 2-((1,3-Dimethyl-1H-pyrazol-5-yl)methylthio)-5-hydroxypyrimidin-4(3H)-one]
1200	CC(Sc1ncc(O)c(=O)[nH]1)c1ccccc1 (stereo not shown) [Example 14, 5-Hydroxy-2-[(1-phenylethyl)sulfanyl]pyrimidin-4(3H)-one]
190	O=c1[nH]c(SCc2cccc(OC(F)F)c2)ncc1O [Example 18, 2-(3-(Difluoromethoxy)benzylthio)-5-hydroxypyrimidin-4(3H)-one]
170	O=c1[nH]c(SCc2cccc(F)c2)ncc1O [Example 6, 2-[(3-Fluorobenzyl)sulfanyl]-5-hydroxypyrimidin-4(3H)-one]
150	O=c1[nH]c(SCc2cc(F)cc(Cl)c2)ncc1O [Example 11, 2-[(3-Chloro-5-fluorobenzyl)sulfanyl]-5-hydroxypyrimidin-4(3H)-one]
120	O=c1[nH]c(SCc2cccc(Cl)c2)ncc1O [Example 1, 2-(3-Chlorobenzylthio)-5-hydroxypyrimidin-4(3H)-one]
120	O=c1[nH]c(SCc2ccc3ccccc3c2)ncc1O [Example 5, 5-Hydroxy-2-[(naphthalen-2-ylmethyl)sulfanyl]pyrimidin-4(3H)-one]
